ChEMBL document CHEMBL5726856, “ULK1 inhibitors and methods using same” (2019)

Biological target: T1, Serine/threonine-protein kinase ULK1 (Homo sapiens, UniProt O75385)
T1 sequence (O75385 whole entry): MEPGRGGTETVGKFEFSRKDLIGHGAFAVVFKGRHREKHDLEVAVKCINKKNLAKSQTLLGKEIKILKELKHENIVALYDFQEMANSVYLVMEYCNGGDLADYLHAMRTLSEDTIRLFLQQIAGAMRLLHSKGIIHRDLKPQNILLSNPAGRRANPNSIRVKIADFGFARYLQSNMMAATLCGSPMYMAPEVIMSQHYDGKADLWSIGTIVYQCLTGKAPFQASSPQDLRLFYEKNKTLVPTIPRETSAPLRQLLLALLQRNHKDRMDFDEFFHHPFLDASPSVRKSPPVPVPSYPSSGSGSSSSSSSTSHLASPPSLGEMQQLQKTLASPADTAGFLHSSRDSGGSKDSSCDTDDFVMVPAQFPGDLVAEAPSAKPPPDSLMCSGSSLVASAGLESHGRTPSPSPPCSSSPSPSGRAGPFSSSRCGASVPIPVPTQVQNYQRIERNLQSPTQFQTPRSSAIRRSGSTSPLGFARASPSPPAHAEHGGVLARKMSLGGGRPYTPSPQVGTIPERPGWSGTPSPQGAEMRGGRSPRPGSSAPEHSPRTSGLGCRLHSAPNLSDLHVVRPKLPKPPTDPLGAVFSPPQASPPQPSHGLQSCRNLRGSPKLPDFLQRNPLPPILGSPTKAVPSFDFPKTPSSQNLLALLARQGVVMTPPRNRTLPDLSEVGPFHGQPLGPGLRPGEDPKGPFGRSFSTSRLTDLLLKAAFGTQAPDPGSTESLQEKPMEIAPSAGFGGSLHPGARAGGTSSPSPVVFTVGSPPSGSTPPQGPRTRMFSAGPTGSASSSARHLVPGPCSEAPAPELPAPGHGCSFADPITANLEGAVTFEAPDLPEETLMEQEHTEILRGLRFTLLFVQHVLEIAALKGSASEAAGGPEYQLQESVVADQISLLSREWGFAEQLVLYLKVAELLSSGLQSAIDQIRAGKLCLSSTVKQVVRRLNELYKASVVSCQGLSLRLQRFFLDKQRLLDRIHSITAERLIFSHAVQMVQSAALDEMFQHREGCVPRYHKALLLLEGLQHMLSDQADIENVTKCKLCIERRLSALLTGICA
Experiment: ULK1 inhibition assay: Gamma-32P assays to measure ULK1 kinase activity were performed as previously described. Briefly, Flag ULK1 was transfected into HEK293T cells and 20 hours later treated as indicated. The immmunoprecipitate was washed in IP buffer 3 times, and washed in kinase buffer (25 mM MOPS, pH 7.5, 1 mM EGTA, 0.1 mM Na3VO4, 15 mM MgCl2,). Hot and cold ATP were added at a 100 μM final concentration. As substrates, GST or the recombinant protein GST-Atg101 purified from E. coli were used at 1 μg for each reaction. Reactions were boiled, run out on SDS page gel. The gel was dried, and imaged using PhosphoImager software. For cold assays to asses ULK1, Flag ULK1 which was transiently overexpressed and immunoprecipited from HEK293T cells. Reactions were then run out on SDS page gel, transferred to PVDF membrane and blotted for total levelsFluorescence MicroscopyVps34flox/flox MEFs were reconstituted with Flag-VPS34 and either p40FX or GFP-DFCP1. 48 hours post infection with adenovirus expressing Cre recombinase (MOI of 100), cells were plated on glass coverslips at a density of 3×10^5 cells per well in 6-well tissue culture plates. 18 h later, cells were fixed in 4% PFA in PBS for 10 minutes and permeabilized in 0.2% Triton in PBS for 10 minutes. The following primary antibodies were used: mouse anti-Myc epitope and LC3B XP antibody (2276 and 3868 respectively, Cell Signaling Technologies). Secondary antibodies were anti-rabbit Alexa488 and anti-mouse Alexa594 (Molecular Probes, 1:1000. Cells were then fixed and counter stained with DAPI. Coverslips were mounted in FluoromountG (SouthernBiothech). Images were acquired on a Zeiss Axioplan2 epifluorescence microscope coupled to the Openlab software. Confocal images of mitotracker were taken on Zeiss LSM 710 laser scanning confocal microscope. 10 random fields per condition were acquired using the 100× objective and representative images shown. Glass coverslips were mounted directly on plate with FluoromountG and images taken on Zeiss Axioplan2 epifluorescence microscope.

SMILES	IC50 [nM]
COc1cc(Nc2ncc(C(F)(F)F)c(Oc3ccccc3N)n2)cc(OC)c1OC	< 200
O=c1[nH][nH]c(=O)c2cc(Nc3ncc(C(F)(F)F)c(NC4CC4)n3)ccc12	< 200
COc1cc(Nc2ncc(Br)c(Oc3ccccc3NS(C)(=O)=O)n2)cc(OC)c1OC	> 2000
COc1cc(Nc2ncc(Br)c(Oc3ccccc3CN(C)C)n2)cc(OC)c1OC	> 2000
CNC(=O)Cc1ccccc1Oc1nc(Nc2cc(OC)c(OC)c(OC)c2)ncc1Br	> 2000
COc1cc(Nc2ncc(Br)c(Oc3cccc4cc[nH]c34)n2)cc(OC)c1OC	> 2000
OCc1ccccc1Nc1nc(Nc2cc(F)c(F)c(F)c2)ncc1Br	> 2000
COc1cc(Nc2ncc(Br)c(Oc3cccc4c3N(C(C)=O)CCC4)n2)cc(OC)c1OC	> 2000
CC(=O)Nc1ccccc1Oc1nc(Nc2ccc3c(c2)OCO3)ncc1Br	> 2000
CNC(=O)c1ccc(OC)cc1Oc1nc(Nc2cc(O)c(OC)c(OC)c2)ncc1Br	> 2000
O=C1CCc2cc(Nc3ncc(C(F)(F)F)c(NCCCNC(=O)C4CC4)n3)ccc2N1	< 200
COc1cc(Nc2ncc(Cl)c(Nc3ccccc3CO)n2)cc(OC)c1OC	> 2000
COc1cc(Nc2ncc(Br)c(Oc3ccccc3[S+](C)[O-])n2)cc(OC)c1OC (configuration not stated)	> 2000
COc1cc(Nc2ncc(Br)c(Oc3ccccc3NC(=O)C(C)(C)C)n2)cc(OC)c1OC	> 2000
O=C1CCc2cc(Nc3ncc(C(F)(F)F)c(Nc4ccc5c(c4)OCO5)n3)ccc2N1	< 200
COc1cc(Nc2nc(Oc3cccc4c3N(C(C)=O)CCC4)ncc2Br)cc(O)c1OC	< 200
COc1cc(Nc2ncc(Br)c(-n3nnc4ccccc43)n2)cc(OC)c1OC	> 2000
FC(F)(F)c1cnc(Nc2ccc(-n3cccc3)cc2)nc1Nc1ccc2c(c1)OCO2	< 200
COc1ccc(Nc2ncc(C(F)(F)F)c(NC3CC3)n2)cc1OC	< 200
CCN1CCOc2cc(Nc3ncc(C(F)(F)F)c(NC4CC4)n3)cnc21	< 200
CNC(=O)c1ccccc1COc1nc(Nc2cc(OC)c(OC)c(OC)c2)ncc1Br	> 2000
FC(F)(F)c1cnc(Nc2cccc(Oc3ccccc3)c2)nc1Nc1ccc2c(c1)OCO2	> 2000
NC(=O)c1cccc(Nc2ncc(C(F)(F)F)c(Nc3ccc4c(c3)OCO4)n2)c1	< 200
FC(F)(F)c1cnc(Nc2cccc(Cl)c2Cl)nc1Nc1ccc2c(c1)OCO2	> 2000

SMILES	IC50 [nM]
CCN1CCOc2cc(Nc3nc(Nc4ccc5c(c4)CCC(=O)N5)ncc3Br)cnc21	< 200
COc1cc(Nc2ncc(Br)c(Oc3ccccc3CNC(C)=O)n2)cc(OC)c1OC	> 2000
COCC(C)(CN(C)C)Nc1nc(Nc2ccc3c(c2)CCC(=O)N3)ncc1C(F)(F)F (configuration not stated)	> 2000
COc1cc(Nc2ncc(Br)c(Oc3cccc4ccncc34)n2)cc(OC)c1OC	> 2000
O=C(C1CC1)N1CCc2cc(Nc3ncc(C(F)(F)F)c(NC4CC4)n3)ccc2C1	< 200
COc1ccc(Nc2ncc(C(F)(F)F)c(Nc3ccc4c(c3)OCO4)n2)cc1	< 200
COc1cc(Nc2ncc(Br)c(Oc3ccccc3C3=NC(C)(C)CO3)n2)cc(OC)c1OC	> 2000
CNC(=O)c1ccccc1Oc1nc(Nc2ccc3c(c2)CCC(=O)N3)ncc1Br	> 2000
COc1cccc(Nc2nc(Nc3ccc(OC(F)(F)F)c(Cl)c3)ncc2C(F)(F)F)c1	> 2000
Nc1ccccc1Oc1nc(Nc2ccc3c(c2)OCO3)ncc1Br	< 200
FC(F)(F)c1cnc(Nc2ccc3c(c2)CCC3)nc1Nc1ccc2c(c1)OCO2	< 200
COc1cc(Nc2ncc(Br)c(Oc3cccc4cccnc34)n2)cc(OC)c1OC	> 2000
COc1cc(Nc2ncc(Br)c(Oc3ccccc3NC(=O)C(F)(F)F)n2)cc(OC)c1OC	< 200
Oc1nc(Nc2cnc3[nH]ccc3c2)ncc1C(F)(F)F	> 2000
COc1cc(Nc2ncc(Br)c(Oc3cccc(O)c3[N+](=O)[O-])n2)cc(OC)c1OC	> 2000
COc1cc(Nc2nc(Oc3cccc4cc[nH]c34)ncc2Br)cc(O)c1OC	> 2000
CC(=O)NNc1nc(Nc2ccc3c(c2)CCC(=O)N3)ncc1C(F)(F)F	> 2000
CNC(=O)c1ccc(OC)cc1Oc1ncc(Br)c(Nc2cc(OC)c(OC)c(OC)c2)n1	> 2000
COc1cc(Nc2nc(Oc3cccc4c3CCCC4)ncc2Br)cc(O)c1OC	> 2000
COc1cc(Nc2ncc(Br)c(Oc3cccc4[nH]nnc34)n2)cc(OC)c1OC	> 2000
COc1cc(Nc2ncc(Br)c(Oc3ccccc3O)n2)cc(OC)c1OC	> 2000
O=C1CCc2cc(Nc3ncc(C(F)(F)F)c(Nc4ccccc4CO)n3)ccc2N1	< 200
COc1cc(Nc2ncc(Br)c(Oc3cccc4c3CCCC4)n2)cc(OC)c1OC	> 2000
